The data set in a line: Transdermal penetration through ex vivo mouse skin in a single-chamber diffusion cell, content by BCA kit. The conditions noted are these: collagen peptide 5 mg/ml in 0.9% NaCl, diffusion area 2.0 cm^2, 37.5° C. The data set is classed as in vitro ADME, Kunming mice. Here is the method:
1. Preparation of Mouse Skin Ex Vivo 10 Kunming mice of 20 to 22 g with half male and half […] were used in the experiment. After the mice were killed, the hairs on the abdomen were removed. Then the skin on the hair-removed area was peeled off, stripped of fat and tendons, and rinsed repeatedly with distilled water. After being washed, the mouse skins were rinsed with normal saline, then treated with 10% glycerol, and stored at −20° C. for use (use up within 7 days).
Single-chamber diffusion cell: The effective diffusion area of the diffusion cell is 2.0 cm^2, the volume of the receiving cell is 14 ml, the length of the custom-made stirrer is 1.4 cm, and the receiving solution is 0.9% NaCl solution.
The stored mouse skin was taken out, thawed, washed with normal saline, and sandwiched between the receiving chamber and the supplying chamber, with the medicated side facing the supplying chamber and the skin side facing the receiving chamber. The temperature of the water bath system was adjusted to 37.5° C., and the stirring speed was adjusted to 100 rpm/min. 0.9% NaCl solution pre-warmed at 37° C. was added to the receiving chamber and the air bubbles were exhausted, in order to reduce the interference, the inner surface of the mouse skin was firstly contacted with the receiving solution without medication and all the receiving solution was replaced. Then the 27 collagen peptides synthesized were prepared into 5 mg/ml solutions using 0.9% NaCl respectively, which were injected into the supplying chamber and firmly adhere to the mouse skin respectively. After 24 h, part of the receiving solution was absorbed with a syringe as the sample solution to determine the transdermal amount of collagen peptide.
The BCA kit method was used to determine the polypeptide content in the sample solution. […]

Structures are written as SMILES. Residues, ends and D or L forms follow the SMILES beside them.

`C[C@H](NC(=O)CNC(=O)[C@@H](NC(=O)[C@H](C)NC(=O)CNC(=O)[C@H](CC(=O)O)NC(=O)[C@H](CC(N)=O)NC(=O)CNC(=O)[C@H](CCCNC(=N)N)NC(=O)[C@H](C)NC(=O)CNC(=O)[C@H](C)NC(=O)[C@@H]1CCCN1C(=O)CNC(=O)[C@@H]1CCCN1C(=O)[C@H](C)NC(=O)CNC(=O)[C@@H]1CCCN1C(=O)[C@H](CCCNC(=N)N)NC(=O)CNC(=O)[C@H](CCCNC(=N)N)NC(=O)[C@H](CCC(=O)O)NC(=O)CN)[C@@H](C)O)C(=O)N[C@@H](C)C(=O)NCC(=O)N1CCC[C@H]1C(=O)N1CCC[C@H]1C(=O)NCC(=O)N1CCC[C@H]1C(=O)N[C@H](C(=O)NCC(=O)N1CCC[C@H]1C(=O)N[C@@H](C)C(=O)NCC(=O)N1CCC[C@H]1C(=O)N1CCC[C@H]1C(=O)O)[C@@H](C)O` [compound 6] (H-GERGRPGAPGPAGARGNDGATGAAGPPGPTGPAGPP-OH; N-terminus and C-terminus assumed) came in with a 24h penetration amount of 2233.35 µg.
Then `CC(C)C[C@H](NC(=O)CNC(=O)[C@@H](NC(=O)[C@@H]1CCCN1C(=O)CNC(=O)[C@@H]1CCCN1C(=O)[C@H](CCC(=O)O)NC(=O)CNC(=O)[C@H](CCCNC(=N)N)NC(=O)[C@H](C)NC(=O)CNC(=O)[C@H](CCCNC(=N)N)NC(=O)[C@H](CCCCN)NC(=O)CNC(=O)[C@H](CCC(=O)O)NC(=O)[C@H](CCC(=O)O)NC(=O)CNC(=O)[C@H](C)NC(=O)[C@@H]1CCCN1C(=O)CNC(=O)[C@@H]1CCCN1C(=O)[C@@H]1CCCN1C(=O)CNC(=O)[C@H](CCC(N)=O)NC(=O)[C@@H](NC(=O)CNC(=O)[C@@H](NC(=O)[C@@H]1CCCN1C(=O)CN)C(C)C)C(C)C)[C@@H](C)O)C(=O)N1CCC[C@H]1C(=O)NCC(=O)N1CCC[C@H]1C(=O)N1CCC[C@H]1C(=O)NCC(=O)N[C@@H](CCC(=O)O)C(=O)N[C@@H](CCCNC(=N)N)C(=O)O` [compound 7] (H-GPVGVQGPPGPAGEEGKRGARGEPGPTGLPGPPGER-OH; N-terminus and C-terminus assumed), with 2189.90 µg; and `CC(C)C[C@H](NC(=O)CNC(=O)[C@@H](NC(=O)[C@@H]1CCCN1C(=O)CNC(=O)[C@@H]1CCCN1C(=O)[C@H](CCC(=O)O)NC(=O)CNC(=O)[C@H](CCCNC(=N)N)NC(=O)[C@H](C)NC(=O)CN)[C@@H](C)O)C(=O)N1CCC[C@H]1C(=O)NCC(=O)N1CCC[C@H]1C(=O)N1CCC[C@H]1C(=O)NCC(=O)N[C@@H](CCC(=O)O)C(=O)N[C@@H](CCCNC(=N)N)C(=O)NCC(=O)NCC(=O)N1CCC[C@H]1C(=O)NCC(=O)N[C@@H](CO)C(=O)N[C@@H](CCCNC(=N)N)C(=O)NCC(=O)N[C@@H](Cc1ccccc1)C(=O)N1CCC[C@H]1C(=O)NCC(=O)N[C@@H](C)C(=O)N[C@@H](CC(=O)O)C(=O)NCC(=O)N[C@H](C(=O)N[C@@H](C)C(=O)NCC(=O)N1CCC[C@H]1C(=O)N[C@@H](CCCCN)C(=O)O)C(C)C` [compound 8] (H-GARGEPGPTGLPGPPGERGGPGSRGFPGADGVAGPK-OH; N-terminus and C-terminus assumed), with 2013.46 µg; and `CSCC[C@H](NC(=O)[C@@H](NC(=O)CNC(=O)[C@H](C)NC(=O)[C@H](CCC(N)=O)NC(=O)CNC(=O)[C@H](CCCNC(=N)N)NC(=O)[C@H](C)NC(=O)CNC(=O)[C@@H]1CCCN1C(=O)[C@@H]1CCCN1C(=O)CNC(=O)[C@@H]1CCCN1C(=O)[C@@H]1CCCN1C(=O)CNC(=O)[C@@H]1CCCN1C(=O)[C@H](CCCNC(=N)N)NC(=O)CN)C(C)C)C(=O)NCC(=O)N[C@@H](Cc1ccccc1)C(=O)N1CCC[C@H]1C(=O)NCC(=O)N1CCC[C@H]1C(=O)N[C@@H](CCCCN)C(=O)NCC(=O)N[C@@H](C)C(=O)N[C@@H](C)C(=O)NCC(=O)N[C@@H](CCC(=O)O)C(=O)N1CCC[C@H]1C(=O)NCC(=O)N[C@@H](CCCCN)C(=O)N[C@@H](C)C(=O)NCC(=O)N[C@@H](CCC(=O)O)C(=O)N[C@@H](CCCNC(=N)N)C(=O)O` [compound 10] (H-GRPGPPGPPGARGQAGVMGFPGPKGAAGEPGKAGER-OH; N-terminus and C-terminus assumed), with 2290.34 µg.

For the origin of these results see US20250152675A1, “I-TYPE RECOMBINANT COLLAGEN WITH HIGH TRANSDERMAL ABSORBABILITY, AND USE THEREOF” (XI'AN GIANT BIOGENE TECHNOLOLGY CO., LTD, priority 2022, published 2025).
